For this test, the target named is T1, hCA XII (Homo sapiens, UniProt O43570).
T1 construct: gene CA12
Put plainly: stopped-flow CO2 hydration assay. It counts as biochemical.

Structures are written as SMILES.

T1 sequence (O43570 25-354): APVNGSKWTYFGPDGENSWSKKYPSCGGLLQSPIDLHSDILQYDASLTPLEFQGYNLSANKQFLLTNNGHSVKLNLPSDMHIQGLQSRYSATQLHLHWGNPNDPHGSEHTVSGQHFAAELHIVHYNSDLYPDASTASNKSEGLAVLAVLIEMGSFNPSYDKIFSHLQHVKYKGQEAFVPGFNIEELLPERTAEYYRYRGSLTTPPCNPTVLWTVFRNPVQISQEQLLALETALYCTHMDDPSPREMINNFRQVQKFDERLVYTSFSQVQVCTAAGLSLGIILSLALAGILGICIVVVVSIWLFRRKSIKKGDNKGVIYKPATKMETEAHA

Turning to `NS(=O)(=O)c1ccc(CC[n+]2c(-c3ccccc3)cc(-c3ccccc3)cc2-c2ccccc2)cc1` [compound 2, 1-(4-sulfamoylphenyl-ethyl)-2,4,6-triphenylpyridinium perchlorate], the affinity, expressed as Ki, was 12.5 nM.

These data come from publication PMC7011996 (Journal of Enzyme Inhibition and Medicinal Chemistry, 2017).
